The experiment deals with T1, CSK_T (truncated Arabidopsis CSK, amino acids 301 to 611) (Arabidopsis thaliana, UniProt F4HVG8).
T1 sequence (F4HVG8 301-611): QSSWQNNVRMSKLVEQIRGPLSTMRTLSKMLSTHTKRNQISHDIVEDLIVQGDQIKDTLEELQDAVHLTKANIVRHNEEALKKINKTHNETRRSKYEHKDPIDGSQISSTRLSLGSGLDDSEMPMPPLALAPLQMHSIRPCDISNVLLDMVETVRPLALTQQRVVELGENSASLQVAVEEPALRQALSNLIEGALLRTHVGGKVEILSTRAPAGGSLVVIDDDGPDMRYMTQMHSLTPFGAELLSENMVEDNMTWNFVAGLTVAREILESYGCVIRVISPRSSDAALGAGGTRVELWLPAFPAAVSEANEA
Kind of experiment: displacement of TNP-ATP fluorescence, […] nm. Particulars: 10 mM NaCl, 10 mM Tris-HCl pH 8; 1 µM TNP-ATP; 2 µM protein (figure legend: 1 µM); competitive displacement, no metal added; read-out: Binding affinity / ATP (mm).

With `Nc1ncnc2c1ncn2[C@@H]1O[C@H](COP(=O)(O)OP(=O)(O)OP(=O)(O)O)[C@@H](O)[C@H]1O` [ATP], the Kd came to 4.97 mM.
